The experiment concerns the target T1, hTLR7 (Homo sapiens, UniProt Q9NYK1).
T1 sequence (Q9NYK1 27-1049): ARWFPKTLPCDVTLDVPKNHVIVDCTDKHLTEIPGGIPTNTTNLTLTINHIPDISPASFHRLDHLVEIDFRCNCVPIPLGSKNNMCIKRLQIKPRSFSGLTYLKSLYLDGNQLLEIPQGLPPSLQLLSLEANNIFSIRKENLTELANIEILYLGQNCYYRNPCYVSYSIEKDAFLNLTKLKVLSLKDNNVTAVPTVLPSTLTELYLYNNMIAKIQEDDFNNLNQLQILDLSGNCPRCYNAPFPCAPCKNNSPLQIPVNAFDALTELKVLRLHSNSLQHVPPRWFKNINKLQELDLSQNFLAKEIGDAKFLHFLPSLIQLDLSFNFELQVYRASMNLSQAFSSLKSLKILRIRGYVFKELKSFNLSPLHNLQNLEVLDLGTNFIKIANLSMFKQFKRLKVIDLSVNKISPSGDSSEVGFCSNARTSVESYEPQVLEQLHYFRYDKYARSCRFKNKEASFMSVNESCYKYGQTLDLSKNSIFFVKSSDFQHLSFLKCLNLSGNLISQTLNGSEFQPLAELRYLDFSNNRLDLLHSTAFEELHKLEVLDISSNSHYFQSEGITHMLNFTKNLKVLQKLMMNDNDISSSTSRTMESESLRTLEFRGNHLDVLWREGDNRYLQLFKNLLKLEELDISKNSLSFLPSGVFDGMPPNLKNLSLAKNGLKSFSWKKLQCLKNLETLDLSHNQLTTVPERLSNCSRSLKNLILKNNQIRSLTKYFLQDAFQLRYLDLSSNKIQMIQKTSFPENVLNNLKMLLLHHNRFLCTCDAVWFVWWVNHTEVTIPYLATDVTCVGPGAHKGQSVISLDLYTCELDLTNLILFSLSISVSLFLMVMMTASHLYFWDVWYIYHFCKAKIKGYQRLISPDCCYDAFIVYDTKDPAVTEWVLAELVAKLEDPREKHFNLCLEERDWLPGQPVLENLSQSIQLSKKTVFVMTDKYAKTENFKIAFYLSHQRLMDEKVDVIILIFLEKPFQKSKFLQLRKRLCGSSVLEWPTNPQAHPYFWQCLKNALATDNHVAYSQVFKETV
Briefly: HEK293-Blue-hTLR-7 cells assay (SEAP reporter, R848 stimulation). It counts as cell-based. To be noted: HEK293-Blue-hTLR7 cells, R848, 20 hrs; read-out: HEK/hTLR7 IC50. More on the design: host or cells: HEK293 (HEK-Blue). The text has this: A stable HEK293-Blue-hTLR-7 cell line was purchased from InvivoGen (Cat.#: hkb-htlr7, San Diego, California, USA). These cells were originally designed for studying the stimulation of human TLR7 by monitoring the activation of NF-κB. A SEAP (secreted embryonic alkaline phosphatase) reporter gene was placed under the control of the IFN-β minimal promoter fused to five NF-κB and AP-1-binding sites. The SEAP was induced by activating NF-xB and AP-1 via stimulating HEK-Blue hTT,R7 cells with TLR7 ligands. Therefore, the reporter expression was declined by TLR7 antagonist under the stimulation of a ligand, such as R848 (Resiquimod), for incubation of 20 hrs. The cell culture supernatant SEAP reporter activity was determined using QUANTI-Blue™ kit (Cat.#: rep-qb1, Invivogen, San Diego, Ca, USA) at a wavelength of 640 nm, a detection medium that turns purple or blue in the presence of alkaline phosphatase.
HEK293-Blue-hTLR7 cells were incubated at a density of 250,000-450,000 cells/mL in a volume of 170 µL in a 96-well plate in Dulbecco's Modified Eagle's medium (DMEM) containing 4.5 g/L glucose, 50 U/mL penicillin, […], […], 2 mM L-glutamine, 10% (v/v) heat-inactivated fetal bovine serum with addition of 20 µL test compound in a serial dilution in the presence of final DMSO at 1% and 10 µL of 20uM R848 in above DMEM, perform incubation under 37 °C in a CO2 incubator for 20 hrs. Then 20 µL of the supernatant from each well was incubated with 180 µL Quanti-blue substrate solution at 37 °C for 2 hrs and the absorbance was read at 620-655 nm using a spectrophotometer. The signaling pathway that TLR7 activation leads to downstream NF-xB activation has been widely accepted, and therefore similar reporter assay was modified for evaluating TLR7 antagonist.

In patent EP3807270B1, “NOVEL HETEROARYL HETEROCYCLYL COMPOUNDS FOR THE TREATMENT OF AUTOIMMUNE DISEASE” (F. Hoffmann-La Roche AG, priority 2018, dated 2019) one finds IC50 data, which are given here for 26 molecules.

Turning to `C[C@@H]1CN(c2ccc(C#N)c3ncccc23)C[C@H](CN2CCN(c3ccc4c(n3)CCNC4)C[C@H](O)C2)O1` (single isomer, unassigned) [Example 35A], the IC50 was found to be 60 nM. Take `C[C@@H]1CN(c2ccc(C#N)c3ncccc23)C[C@H](CN2CCN(c3ccc4c(n3)CCNC4)C[C@@H](O)C2)O1` (single isomer, unassigned) [Example 35B]: the IC50 is 61 nM. As to `C[C@@H]1CN(c2ccc(C#N)c3ncccc23)C[C@H](CN2C[C@H]3CN(c4ccc5c(n4)CCNC5)CC[C@@H]32)O1` (single isomer, unassigned) [Example 54], the IC50 is 6 nM. Take `C[C@@H]1CN(c2ccc(C#N)c3ncccc23)C[C@H](CN2CCN(c3ccc4c(n3)CN[C@H]4C)CC2)O1` (single isomer, unassigned) [Example 63]: the IC50 worked out at 11 nM. Turning to `C[C@@H]1CN(c2ccc(C#N)c3ncccc23)C[C@H](CN2CCN(c3ccc4c(n3)CN[C@@H]4C)CC2)O1` (single isomer, unassigned) [Example 64], the IC50 was 12 nM. As for `C[C@@H]1CN(c2ccc(C#N)c3ncccc23)C[C@H](CN2CCN(c3ccc4c(n3)[C@@H](C)NC4)CC2)O1` (single isomer, unassigned) [Example 65], the IC50 worked out at 7 nM. In the case of `C[C@@H]1CN(c2ccc(C#N)c3ncccc23)C[C@H](CN2CCN(c3ccc4c(n3)[C@H](C)NC4)CC2)O1` (single isomer, unassigned) [Example 66] it was 14 nM.

In the case of `C[C@@H]1CN(c2ccc(C#N)c3ncccc23)C[C@H](CN2CCN(c3cnc4c(c3)CN[C@H]4C)CC2)O1` (single isomer, unassigned) [Example 67], the IC50 was 13 nM.

As for `C[C@@H]1Cc2cc(N3CCN(C[C@H]4CN(c5ccc(C#N)c6ncccc56)C[C@@H](C)O4)CC3)ncc2CN1` (single isomer, unassigned) [Example 70], the IC50 was 26 nM. Take `C[C@@H]1CN(c2ccc(C#N)c3ncccc23)C[C@H](CN2CCN(c3cc4c(cn3)CN[C@@H](C)C4)CC2)O1` (single isomer, unassigned) [Example 71]: the IC50 turned out to be 24 nM. With `C[C@@H]1CN(c2ccc(C#N)c3ncccc23)C[C@H](CN2CCN(c3cc4c(cn3)[C@H](C)NCC4)CC2)O1` (single isomer, unassigned) [Example 72], the IC50 was 13 nM.

Turning to `C[C@@H]1CN(c2ccc(C#N)c3ncccc23)C[C@H](CN2CCN(c3cc4c(cn3)CCN[C@H]4C)CC2)O1` (single isomer, unassigned) [Example 75], the IC50 came to 8 nM. Turning to `C[C@@H]1Cc2cnc(N3CCN(C[C@H]4CN(c5ccc(C#N)c6ncccc56)C[C@@H](C)O4)CC3)cc2CN1` (single isomer, unassigned) [Example 77], the IC50 was determined as 11 nM. As for `C[C@@H]1Cc2cnc(N3CCN(C[C@H]4CN(c5ccc(C#N)c6nccnc56)C[C@@H](C)O4)CC3)cc2CN1` (single isomer, unassigned) [Example 82], the IC50 was determined as 11 nM. Consider `C[C@@H]1CN(c2ccc(C#N)c3nccnc23)C[C@H](CN2CCN(c3cc4c(cn3)[C@H](C)NCC4)CC2)O1` (single isomer, unassigned) [Example 85], for which the IC50 worked out at 5 nM. `C[C@@H]1CN(c2ccc(C#N)c3ncccc23)C[C@H](CN2CCN(c3ccc4c(c3)CNC4)[C@@H](CO)C2)O1` [Example 4, 5-[(2S,6R)-2-[[(3R)-3-(hydroxymethyl)-4-isoindolin-5-yl-piperazin-1-yl]methyl]-6-methyl-morpholin-4-yl]quinoline-8-carbonitrile]: the IC50 is 64 nM. With `C[C@@H]1CN(c2ccc(C#N)c3ncccc23)C[C@H](CN2CCN(c3ncc4c(n3)CNCC4)CC2)O1` [Example 12, 5-[(2R,6S)-2-methyl-6-[[4-(5,6,7,8-tetrahydropyrido[3,4-d]pyrimidin-2-yl)piperazin-1-yl]methyl]morpholin-4-yl]quinoline-8-carbonitrile], the IC50 came out at 11 nM. With `C[C@@H]1CN(c2ccc(C#N)c3ncccc23)C[C@H](CN2CCN(c3ccc4c(c3)CNC4)C(CO)C2)O1` (stereo partly drawn) [Example 13, 5-[(2S,6R)-2-[[3-(hydroxymethyl)-4-isoindolin-5-yl-piperazin-1-yl]methyl]-6-methyl-morpholin-4-yl]quinoline-8-carbonitrile], the IC50 stood at 57 nM. As to `C[C@@H]1CN(c2ccc(C#N)c3ncccc23)C[C@H](CN2CCN(c3ccc4c(c3)CNC4)CC2CO)O1` (stereo partly drawn) [Example 15, 5-[(2S,6R)-2-[[2-(hydroxymethyl)-4-isoindolin-5-yl-piperazin-1-yl]methyl]-6-methyl-morpholin-4-yl]quinoline-8-carbonitrile], the IC50 was 73 nM.

Turning to `C[C@@H]1CN(c2ccc(C#N)n3ncc(F)c23)C[C@H](CN2CCN(c3cnc4c(c3)CNC4)CC2)O1` [Example 26, 4-[(2S,6R)-2-[[4-(6,7-dihydro-5H-pyrrolo[3,4-b]pyridin-3-yl)piperazin-1-yl]methyl]-6-methyl-morpholin-4-yl]-3-fluoro-pyrazolo[1,5-a]pyridine-7-carbonitrile], the IC50 came to 39 nM. Regarding `CC1NCc2cc(N3CCN(C[C@H]4CN(c5ccc(C#N)c6ncccc56)C[C@@H](C)O4)CC3)ccc21` (stereo partly drawn) [Example 28, 5-[(2R,6S)-2-methyl-6-[[4-(1-methylisoindolin-5-yl)piperazin-1-yl]methyl]morpholin-4-yl]quinoline-8-carbonitrile], the IC50 turned out to be 11 nM. For `C[C@@H]1CN(c2ccc(C#N)c3ncccc23)C[C@H](CN2CCN(c3nc4c(s3)CNCC4)CC2)O1` [Example 31, 5-[(2R,6S)-2-methyl-6-[[4-(4,5,6,7-tetrahydrothiazolo[5,4-c]pyridin-2-yl)piperazin-1-yl]methyl]morpholin-4-yl]quinoline-8-carbonitrile], the IC50 came to 11 nM. Regarding `C[C@@H]1CN(c2ccc(C#N)c3ncccc23)C[C@H](CN2CCC(Nc3ccc4c(c3)CNC4)C2)O1` (stereo partly drawn) [Example 38, 5-[(2S,6R)-2-[[3-(isoindolin-5-ylamino)pyrrolidin-1-yl]methyl]-6-methyl-morpholin-4-yl]quinoline-8-carbonitrile], the IC50 was 65 nM. As to `C[C@@H]1CN(c2ccc(C#N)c3ncccc23)C[C@H](CNC2CN(c3cnc4c(c3)CNC4)C2)O1` [Example 43, 5-[(2S,6R)-2-[[[1-(6,7-dihydro-5H-pyrrolo[3,4-b]pyridin-3-yl)azetidin-3-yl]amino]methyl]-6-methyl-morpholin-4-yl]quinoline-8-carbonitrile], the IC50 is 130 nM.

As to `C[C@@H]1CN(c2ccc(C#N)c3ncccc23)C[C@H](CN2CC3(C2)CN(c2ncc4c(n2)CCNC4)CCO3)O1` [Example 51, 5-[(2R,6S)-2-methyl-6-[[8-(5,6,7,8-tetrahydropyrido[4,3-d]pyrimidin-2-yl)-5-oxa-2,8-diazaspiro[3.5]nonan-2-yl]methyl]morpholin-4-yl]quinoline-8-carbonitrile], the IC50 turned out to be 12 nM. Take `C[C@@H]1CN(c2ccc(C#N)c3ncccc23)C[C@H](CN2CCN(c3ccc4c(c3)C(O)CN(C)C4)CC2)O1` (stereo partly drawn) [Example 59, 5-[(2S,6R)-2-[[4-(4-hydroxy-2-methyl-3,4-dihydro-1H-isoquinolin-6-yl)piperazin-1-yl]methyl]-6-methyl-morpholin-4-yl]quinoline-8-carbonitrile]: the IC50 came out at 41 nM.
